According to US11536729B2, “Method of identifying novel protein aggregation inhibitors based on chemical kinetics” (Cambridge Enterprise Limited, priority 2016, dated 2022):

Columns and labels:
Format in all cases: biochemical
Aβ42 [1] = biological target: T1, Aβ42 (Homo sapiens, UniProt P05067); assay: ThT-based Aβ42 aggregation kinetics under quiescent (unseeded) conditions; conditions: for ranking of efficacy within set: 2 μM Aβ42; for change of inhibitory activity relative to parent scaffold: structural comparison among RAR/RXR modulators
T1 construct: The recombinant Aβ (M1-42) peptide; made in house; host or cells: E. coli BL21 Gold (DE3)
Experimental: Solutions of monomeric peptides were prepared by dissolving the lyophilized Aβ42 peptide in 6 M GuHCl. Monomeric forms were purified from potential oligomeric species and salt using a Superdex 75 10/300 GL column (GE Healthcare) at a flowrate of 0.5 mL/min, and were eluted in 20 mM sodium phosphate buffer, pH 8 supplemented with 200 μM EDTA and 0.02% NaN3. The center of the peak was collected and the peptide concentration was determined from the absorbance of the integrated peak area using ε280=1400 l mol^−1 cm^−1. The obtained monomer was diluted with buffer to the desired concentration and supplemented with 20 μM Thioflavin T (ThT) from a 1 mM stock. All samples were prepared in low binding eppendorf tubes on ice using careful pipetting to avoid introduction of air bubbles. Each sample was then pipetted into multiple wells of a 96-well half-area, low-binding, clear bottom and PEG coating plate (Corning 3881), 80 μL per well.
We verified that the addition of 1% DMSO in the reaction mixture has no effect on Aβ42 aggregation.
(§1) Assays were initiated by placing the 96-well plate at 37° C. under quiescent conditions in a plate reader (Fluostar Omega, Fluostar Optima or Fluostar Galaxy, BMGLabtech, Offenburg, Germany). The ThT fluorescence was measured through the bottom of the plate with a 440 nm excitation filter and a 480 nm emission filter. The ThT fluorescence was followed for three repeats of each sample.
The time evolution of the total fibril mass concentration, M(t), is described by the following integrated rate law (30, 32)
(§2) [formula] where the kinetic parameters B±, C±, κ, κ∞ and ? are functions of the two ? combinations of the microscopic rate constants k+k2 and knk2, where kn, k+ and k2 are the primary nucleation, elongation and secondary nucleation rate constants, respectively.
The time evolution of the total fibril mass concentration, M(t), is described by the following integrated rate law
as §2, with “two” for “two ?”, “respectively. Aβ42 alone in 1% DMSO was first modeled to obtain the k+k2 and knk2 combined microscopic rate constants.” for “respectively.”
Target sequence in this assay (P05067 671-713): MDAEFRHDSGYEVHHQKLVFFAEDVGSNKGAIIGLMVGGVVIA
With the introduction of different small molecules, the aggregation process can be inhibited by one or more individual microscopic reactions. Microscopic rate constants k+k2 and knk2 were obtained in the presence of the molecules, and compared to the initial values of Aβ42 alone. This comparison allows one to understand which rate was mainly perturbed, as well as the potency of the compounds (by relative changes of their microscopic rates) with respect to each other.

Aβ42 [2] = biological target: T1, Aβ42; assay: ThT Aβ42 aggregation kinetics with 1-5% pre-formed fibril seeds (surface-catalyzed secondary nucleation); conditions: 2 μM Aβ42, 1-5% seeds, 0.5-fold excess
Experimental: For the seeded experiments, preformed fibrils were prepared just prior to the experiment. Kinetic experiments were set up just as above for a […] Aβ42 samples in 20 mM sodium phosphate buffer, pH 8 with 200 μM EDTA, 0.02% NaN3 and 20 μM ThT. The ThT fluorescence was monitored for 3 hours to verify the formation of fibrils.
(§3) Samples were then collected from the wells into low-binding tubes and sonicated for 2 min in a sonicator bath at room temperature. Under the considered conditions (i.e. 4 μM Aβ42), the monomer concentration is negligible at equilibrium (31). The final concentration of fibrils, in monomer equivalents, was considered equal to the initial concentration of monomer. Fibrils were then added to freshly prepared monomer in order to reach either 5% or 10% fibrils final concentration.
as §1, with “sample. […]” for “sample.”
Target sequence in this assay (P05067 672-713 limits assumed): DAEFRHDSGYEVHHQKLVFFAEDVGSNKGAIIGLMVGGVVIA
For the seeded experiments, preformed fibrils were prepared just prior to the experiment. […] The ThT fluorescence was monitored for 3 hours to verify the formation of fibrils. […]

Aβ42 [3] = biological target: T1, Aβ42; assay: ThT Aβ42 aggregation kinetics with 10% pre-formed fibril seeds (elongation dominant); conditions: 2 μM Aβ42, 5-fold excess
Experimental: as §3
as §1, with “sample. […]” for “sample.”
Target sequence in this assay (P05067 672-713 limits assumed): as above

Structure (SMILES)	ranking of efficacy within set (Aβ42 [1])	change of inhibitory activity relative to parent scaffold (Aβ42 [1])	effect on Aβ42 aggregation of linker variants of bexarotene (Aβ42 [1])	other results
COc1ccc(-c2ccc3cc(C(=O)O)ccc3c2)cc1C12CC3CC(CC(C3)C1)C2 [Adapalene]	most effective molecules within Set C	–	–	–
CC1(C)CC=C(C#Cc2ccccc2)c2cc(/C=C/c3ccc(C(=O)O)cc3)ccc21 [BMS493]	–	same effect	–	–
CC1(C)C(=O)C(C)(C)c2cc(C(=O)Nc3ccc(C(=O)O)cc3)ccc21 [BMS753]	–	–	–	delay / effect on Aβ42 aggregation (Aβ42 [1]; 2 μM Aβ42, 3-fold excess): did not show any effect; effect on aggregation kinetics of Aβ42 (Aβ42 [1]; fold-excesses as high as 5): did not show any effect
CC1(C)CC=C(c2cnc3ccccc3c2)c2cc(C(=O)Nc3ccc(C(=O)O)cc3)ccc21 [BMS195614]	–	substantial increase in primary nucleation inhibitory activity	–	–
CC1(C)CCC(C)(C)c2cc(C3(c4ccc5cc(C(=O)O)ccc5c4)SCCS3)ccc21 [MM11253]	most effective molecules within Set C	–	–	–
CC1(C)CCC(C)(C)c2cc(C3(c4ccc(C(=O)O)cc4)OCCO3)ccc21 [SR11237]	–	–	delayed the aggregation of Aβ42 to different extent	–
C/C(=C\c1ccc(C(=O)O)cc1)c1ccc2c(c1)C(C)(C)CCC2(C)C [TTNPB]	–	increase in inhibitory activity	delayed the aggregation of Aβ42 to different extent	–
CC1(C)CCC(C)(C)c2cc(NC(=O)c3ccc(C(=O)O)cc3)ccc21 [Tamibarotene]	–	–	delayed the aggregation of Aβ42 to different extent	–
CCCCCOc1cc2c(cc1-c1cc(/C=C/C(=O)O)ccc1O)C(C)(C)CCC2(C)C [UVI3003]	most effective molecule within Set B	–	–	decrease of rate of surface-catalyzed secondary nucleation (k2) (Aβ42 [2]): 75%; effect on aggregation kinetics / elongation with 10% fibril seeds (Aβ42 [3]): no effect could be observed
NCCCS(=O)(=O)O [tramiprosate]	–	–	–	effect on Aβ42 aggregation (Aβ42 [1]; even when present in 20-fold excess): no effects
